# Results reported in US8575197B2, “Pyrolinone derivative and pharmaceutical composition comprising the same” (Shionogi & Co., Ltd., priority 2008, dated 2013).
# Molecular target: human P2X3 receptor (Homo sapiens (Human), UniProt P56373)
# Assay: P2X3 receptor inhibition, ATP-evoked Fluo-3 calcium fluorescence (FDSS 3000)
# Type: cell-based
# Conditions: C6BU-1 cell transfected with human P2X3 receptor gene; ATP-evoked Fluo-3 fluorescence
# Summary of the method: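 C6BU-1 cells stably transfected with human P2X3, loaded with 4 μM Fluo-3-AM for 1 h at 37 °C in HEPES buffer pH 7.5 with probenecid. Compound added 5 min before 40 nM ATP solution; fluorescence followed 3 min. IC50 from ratio of peak post-ATP to baseline fluorescence.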
# human P2X3 receptor, sequence (P56373 whole entry): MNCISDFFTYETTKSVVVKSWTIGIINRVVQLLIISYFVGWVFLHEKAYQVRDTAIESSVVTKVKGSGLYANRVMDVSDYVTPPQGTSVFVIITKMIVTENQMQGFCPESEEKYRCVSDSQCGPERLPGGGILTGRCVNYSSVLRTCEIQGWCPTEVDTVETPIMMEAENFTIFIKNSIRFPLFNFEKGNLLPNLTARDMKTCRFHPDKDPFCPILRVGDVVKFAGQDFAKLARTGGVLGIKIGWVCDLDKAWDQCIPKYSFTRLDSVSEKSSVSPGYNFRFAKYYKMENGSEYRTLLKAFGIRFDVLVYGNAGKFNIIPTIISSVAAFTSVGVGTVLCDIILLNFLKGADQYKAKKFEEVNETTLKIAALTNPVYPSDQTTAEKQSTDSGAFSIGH
row,IC50 [µM],SMILES
1,0.268,COCc1ccccc1C1C(C(=O)CC(C)C)=C(O)C(=O)N1c1ccc(C2=NCCS2)cc1 (centres unmarked) [Compound I-414]
2,0.322,COc1ccccc1C1C(C(=O)C(C)C)=C(O)C(=O)N1c1ccc(-c2cscn2)cc1 (centres unmarked) [Compound I-416]
3,0.181,COCCOc1ccccc1C1C(C(=O)C(C)C)=C(O)C(=O)N1c1ccc(-c2cscn2)cc1 (centres unmarked) [Compound I-417]
4,0.593,COCc1ccccc1C1C(C(=O)C(C)C)=C(O)C(=O)N1c1ccc(-c2cscn2)cc1 (centres unmarked) [Compound I-418]
5,0.032,Cc1cc(-c2ccc(N3C(=O)C(O)=C(C(=O)C(C)C)C3c3ccccc3OC(C)C)cc2)cs1 (centres unmarked) [Compound I-419]
6,0.257,COc1ccccc1C1C(C(=O)CC(C)C)=C(O)C(=O)N1c1ccc(-c2cscn2)cc1 (centres unmarked) [Compound I-420]
7,0.191,COCCOc1ccccc1C1C(C(=O)CC(C)C)=C(O)C(=O)N1c1ccc(-c2cscn2)cc1 (centres unmarked) [Compound I-421]
8,0.361,COCc1ccccc1C1C(C(=O)CC(C)C)=C(O)C(=O)N1c1ccc(-c2cscn2)cc1 (centres unmarked) [Compound I-422]
9,0.519,COCCOc1ccccc1C1C(C(=O)C(C)C)=C(O)C(=O)N1c1ccc(-c2csc(C)n2)cc1 (centres unmarked) [Compound I-424]
10,0.697,COCc1ccccc1C1C(C(=O)C(C)C)=C(O)C(=O)N1c1ccc(-c2csc(C)n2)cc1 (centres unmarked) [Compound I-425]
11,0.331,COCCOc1ccccc1C1C(C(=O)CC(C)C)=C(O)C(=O)N1c1ccc(-c2csc(C)n2)cc1 (centres unmarked) [Compound I-427]
12,0.399,COCc1ccccc1C1C(C(=O)CC(C)C)=C(O)C(=O)N1c1ccc(-c2csc(C)n2)cc1 (centres unmarked) [Compound I-428]
13,0.007,CC(C)C(=O)C1=C(O)C(=O)N(c2ccc(-c3ccsc3)cc2)C1c1ccccc1OCCCO (centres unmarked) [Compound I-429]
14,0.153,CC(C)CC(=O)C1=C(O)C(=O)N(c2ccc(-c3ccoc3)cc2)C1c1ccccc1C(=O)N(C)C (centres unmarked) [Compound I-430]
15,0.425,COCCOc1ncccc1[C@H]1C(C(=O)C(C)C)=C(O)C(=O)N1c1ccc(-c2ccsc2)cc1 [Compound I-433]
16,0.082,COCCOc1ccccc1C1C(C(=O)CC(C)C)=C(O)C(=O)N1c1ccc(SC)cc1 (centres unmarked) [Compound I-435]
17,0.042,CSc1ccc(N2C(=O)C(O)=C(C(=O)CC(C)C)C2c2ccccc2OC(C)C)cc1 (centres unmarked) [Compound I-436]
18,0.111,COCc1ccccc1C1C(C(=O)CC(C)C)=C(O)C(=O)N1c1ccc(SC)cc1 (centres unmarked) [Compound I-437]
19,0.49,Cc1nc(-c2ccc(N3C(=O)C(O)=C(C(=O)CC4CCCC4)C3C3CCCCC3)cc2)no1 (centres unmarked) [Compound I-438]
20,0.116,COCc1ccccc1C1C(C(=O)CC2CCCC2)=C(O)C(=O)N1c1ccc(-c2ccsc2)cc1 (centres unmarked) [Compound I-439]
21,0.035,CCOc1ncccc1C1C(C(=O)CC(C)C)=C(O)C(=O)N1c1ccc(-c2ccsc2)cc1 (centres unmarked) [Compound I-440]
22,0.013,CCOc1ncccc1C1C(C(=O)C(C)C)=C(O)C(=O)N1c1ccc(-c2ccsc2)cc1 (centres unmarked) [Compound I-441]
23,0.005,CC(C)CC(=O)C1=C(O)C(=O)N(c2ccc(-c3ccsc3)cc2)C1c1ccccc1N1CCOCC1 (centres unmarked) [Compound I-442]
24,0.006,CC(C)C(=O)C1=C(O)C(=O)N(c2ccc(-c3ccsc3)cc2)C1c1ccccc1N1CCOCC1 (centres unmarked) [Compound I-443]
25,0.172,Cc1nc(-c2ccc(N3C(=O)C(O)=C(C(=O)C(C)C)C3c3ccccc3OCCCO)cc2)no1 (centres unmarked) [Compound I-444]
26,0.152,Cc1nc(-c2ccc(N3C(=O)C(O)=C(C(=O)CC(C)C)C3c3ccccc3OCCCO)cc2)no1 (centres unmarked) [Compound I-445]
27,0.338,COCCOc1ccccc1C1C(C(=O)CC(C)C)=C(O)C(=O)N1c1ccc(SC(F)(F)F)cc1 (centres unmarked) [Compound I-446]
28,0.128,CC(C)CC(=O)C1=C(O)C(=O)N(c2ccc(SC(F)(F)F)cc2)C1c1ccccc1OC(C)C (centres unmarked) [Compound I-447]
29,0.246,COCc1ccccc1C1C(C(=O)CC(C)C)=C(O)C(=O)N1c1ccc(SC(F)(F)F)cc1 (centres unmarked) [Compound I-448]
